Values quoted from earlier work in US20050147620A1, “Cinnamon formulation for reducing cholesterol and/or glucose levels” (priority 2004, published 2005).

Key:
[1] = ingestion of 20 to 30 g per day for several days

pKa | SMILES | increase in human skeletal muscle total creatine content [1]
– | CN(CC(=O)O)C(=N)N.O [creatine monohydrate] | greater than 20%
4.7 | O=C(O)CCCCC1CCSS1 (stereo not drawn) [lipoic acid, α-lipoic acid] | –
